We go through five molecules from ChEMBL document CHEMBL1287719, “N⁶-Alkyladenosines: Synthesis and evaluation of in vitro anticancer activity” (Bioorg Med Chem, 2010).

Calls of active or inactive are those of the source. No cut-off for these calls is given here.

Test [1] deals with T-24. In words: Inhibition of human T24 cell migration by wound healing assay. It counts as functional, cell-based.
In another test the test system is J82. In words: Cytotoxicity against human J82 cells at 10 uM after 72 hrs by MTT assay. It is filed as functional, cell-based. On the technique in general: Formazan colour is commonly taken as a measure of viable cells.
Test [2] addresses Matrix metalloproteinase-9 (Homo sapiens) (UniProt P14780). The experiment in a line: Induction of MMP9 activity in human T24 cells after 1 hr by zymography. The following applies: T-24. It counts as cell-based.
Test [3] deals with T-24. The experiment in a line: Inhibition of human T24 cells invasion on Matrigel after 24 hrs. It is filed as functional, cell-based.
The test system of test [4] is T-24. The experiment in a line: Growth inhibition of human T24 cells assessed as reduction of cell count after trypsinization at 10 uM after 72 hrs by MTT assay. It counts as functional, cell-based.
Test [5] deals with T-24. The experiment in a line: Cytotoxicity against human T24 cells assessed as inhibition of clones formation at 10 uM after 1 week by clonogenic assay. It counts as functional, cell-based.
A further test concerns MDA-MB-231. The experiment in a line: Cytotoxicity against human MDA-MB-231 cells at 10 uM after 72 hrs by MTT assay. It is filed as functional, cell-based.
For test [6], the system named is T-24. The experiment in a line: Cytotoxicity against human T24 cells at 10 uM after 72 hrs by MTT assay. It is filed as functional, cell-based.
The subject of a further test is Caco-2. The experiment in a line: Cytotoxicity against human Caco-2 cells at 10 uM after 72 hrs by MTT assay. It is filed as functional, cell-based.

Matrix metalloproteinase-9 (Homo sapiens), sequence (P14780 whole entry): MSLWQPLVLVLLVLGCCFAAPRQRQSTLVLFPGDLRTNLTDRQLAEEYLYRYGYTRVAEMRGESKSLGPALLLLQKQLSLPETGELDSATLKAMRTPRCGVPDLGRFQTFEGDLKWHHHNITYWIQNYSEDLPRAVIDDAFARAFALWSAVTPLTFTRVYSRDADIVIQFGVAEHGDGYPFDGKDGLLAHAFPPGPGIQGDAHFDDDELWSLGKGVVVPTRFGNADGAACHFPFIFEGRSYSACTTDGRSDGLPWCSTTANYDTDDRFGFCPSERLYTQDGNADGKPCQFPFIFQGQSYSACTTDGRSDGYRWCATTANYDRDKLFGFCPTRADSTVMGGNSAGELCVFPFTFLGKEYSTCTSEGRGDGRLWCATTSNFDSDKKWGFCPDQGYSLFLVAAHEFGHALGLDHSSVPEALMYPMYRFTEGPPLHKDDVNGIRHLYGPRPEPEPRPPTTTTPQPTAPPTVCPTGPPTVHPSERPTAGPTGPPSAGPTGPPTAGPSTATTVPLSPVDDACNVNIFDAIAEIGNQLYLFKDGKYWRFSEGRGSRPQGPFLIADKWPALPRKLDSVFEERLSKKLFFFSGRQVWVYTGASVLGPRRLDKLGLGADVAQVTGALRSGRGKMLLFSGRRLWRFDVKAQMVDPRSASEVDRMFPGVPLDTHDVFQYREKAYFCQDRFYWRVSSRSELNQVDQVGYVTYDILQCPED

On to `CCCCNc1ncnc2c1ncn2[C@@H]1O[C@H](CO)[C@@H](O)[C@H]1O`, for which the result (in the test on T-24 [1]; in test [2]) was inactive. The result in the test on J82, with T-24 [4], in the test on T-24 [5], with MDA-MB-231, in the test with T-24 [6] and in the test with Caco-2 was Active. Further, in the test with T-24 [3], the inhibition result is “inactive”.
Turning to `C=CCNc1ncnc2c1ncn2[C@@H]1O[C@H](CO)[C@@H](O)[C@H]1O`, the outcome (in the test with T-24 [1]; in test [2]) was inactive. In addition, the outcome in the test with J82, in the test on T-24 [4], in the test on T-24 [5], in the test with MDA-MB-231, in the test on T-24 [6] and in the test on Caco-2 was Active. In the test with T-24 [3], the inhibition entry is “inactive”.
`OC[C@H]1O[C@@H](n2cnc3c(NCC4CCC4)ncnc32)[C@H](O)[C@@H]1O`: the outcome (in the test on T-24 [1]; in test [2]) was inactive. Further, the result with J82, in the test with T-24 [4], with T-24 [5], in the test with MDA-MB-231, in the test on T-24 [6] and with Caco-2 was Active. The inhibition result in the test with T-24 [3] is “inactive”.
Turning to `CC(C)CCNc1ncnc2c1ncn2[C@@H]1O[C@H](CO)[C@@H](O)[C@H]1O`, the result (with T-24 [1]; in test [2]) was inactive. Besides, the result in the test on J82, with T-24 [4], in the test with T-24 [5], in the test on MDA-MB-231, with T-24 [6] and with Caco-2 was Active. The inhibition result in the test with T-24 [3] was “inactive”.
For the molecule `OC[C@H]1O[C@@H](n2cnc3c(NCc4ccccc4)ncnc32)[C@H](O)[C@@H]1O`, the result (in the test on T-24 [1]; in [2]) was inactive. Besides, the result in the test with J82, with T-24 [4], with T-24 [5], in the test with MDA-MB-231, in the test with T-24 [6] and with Caco-2 was Active. In the test on T-24 [3], the inhibition result is “inactive”.
